# According to patent publication US7465729B2, “Methods of treatment of menopause and perimenopause using eszopiclone” (Sepracor Inc., priority 2004, dated 2008):
# How the values were obtained:
# [1] = test system: women with insomnia secondary to perimenopause or menopause; assay: Clinical study: number of nocturnal awakenings due to hot flashes; type: in vivo; conditions: 3 mg nightly, ITT; for Number of Nocturnal Awakenings due to Hot Flashes, Change from Baseline, Least Squares Means (SE) [3]: ANCOVA; for Number of Nocturnal Awakenings due to Hot Flashes, Observed Value, Least Squares Means (SE) [2]: ANOVA
# Description: (§1) The study was aimed at observing efficacy of eszopiclone 3 mg compared to placebo in the treatment of insomnia secondary to perimenopause or menopause. The study was a multicenter, randomized, double-blind, placebo-controlled, parallel-group study. […] The primary method of analysis compared the post-randomization results between the two treatment groups.
# (§2) Subjects were women with insomnia secondary to perimenopause or menopause. Subjects were perimenopausal or menopausal and had insomnia symptoms including ≧45 minutes sleep latency (SL) and total sleep time (TST) ≦6 hours. Perimenopausal/menopausal symptoms predated the onset of sleep disturbance symptoms. The patient population was predominately Caucasian (77.2%). The mean age was 49, with a range of 40-60.
# (§3) A total of 410 subjects were randomized. Among them, 201 received 3 mg of eszopiclone (ESZ) nightly (at bedtime) for four weeks and 209 received matching placebo (PBO).
# muscarinic receptors = assay: In vitro affinity for muscarinic receptors; type: binding
# [2] = test system: women with insomnia secondary to perimenopause or menopause; assay: Clinical study: Physician Global Assessment of perimenopausal or menopausal symptoms; type: in vivo; conditions: ITT; for Physician Global Assessment, Observed Value, Mean (SD): score 1 = Very much improved to 7 = Very much worse; for Physician Global Assessment, Observed Value, Least Squares Means (SE) [1]: ANOVA
# Description: as §1, §2, §3
# A Physician Global Assessment was administered at Week 4, the end of the double-blind treatment period.
# mice = assay: Antimuscarinic activity in vivo: oxotremorine induced salivation; conditions: doses up to 300 mg/kg, p.o.
# Description: Eszopiclone was evaluated for antimuscarinic activity in vivo.
# conscious dogs = assay: Dose escalation safety study, cardiovascular and respiratory parameters; conditions: acute intravenous, 3, 5 and 12 mg/kg
# Description: To establish the safety of eszopiclone, a dose escalation study was carried out. Cardiovascular and respiratory parameters were evaluated in conscious dogs following acute intravenous administration of (R)-, (S)- or racemic zopiclone at three doses (3, 5 and 12 mg/kg).
compound,measurement,setting,value
"CN1CCN(C(=O)O[C@H]2c3nccnc3C(=O)N2c2ccc(Cl)cn2)CC1 [Eszopiclone, (+)6-(5-chloropyrid-2-yl)-5-(4-methylpiperazin-1-yl)carbonyloxy-7-oxo-6,7-dihydro-5H-pyrrolo[3-4-b]pyrazine]","Number of Nocturnal Awakenings due to Hot Flashes, Change from Baseline, Maximum",[1]; Week 3,1.5
same,"Number of Nocturnal Awakenings due to Hot Flashes, Change from Baseline, Mean (SD)",[1]; Week 3,−0.7 (1.1)
same,"Number of Nocturnal Awakenings due to Hot Flashes, Change from Baseline, Median",[1]; Week 3,−0.4
same,"Number of Nocturnal Awakenings due to Hot Flashes, Change from Baseline, Minimum",[1]; Week 3,−6.0
same,"Number of Nocturnal Awakenings due to Hot Flashes, Observed Value, 25th Percentile",[1]; Week 3,0.0
same,"Number of Nocturnal Awakenings due to Hot Flashes, Observed Value, 75th Percentile",[1]; Week 3,1.0
same,"Number of Nocturnal Awakenings due to Hot Flashes, Observed Value, Maximum",[1]; Week 3,3.0
same,"Number of Nocturnal Awakenings due to Hot Flashes, Observed Value, Mean (SD)",[1]; Week 3,0.5 (0.7)
same,"Number of Nocturnal Awakenings due to Hot Flashes, Observed Value, Median",[1]; Week 3,0.0
same,"Number of Nocturnal Awakenings due to Hot Flashes, Observed Value, Minimum",[1]; Week 3,0.0
same,"Number of Nocturnal Awakenings due to Hot Flashes, Change from Baseline, Least Squares Means (SE) [3]",[1]; Week 3,−0.6 (0.1)
same,"Number of Nocturnal Awakenings due to Hot Flashes, Observed Value, Least Squares Means (SE) [2]",[1]; Week 3,0.5 (0.1)
same,"Number of Nocturnal Awakenings due to Hot Flashes, Change from Baseline, 25th Percentile",[1]; Week 4,−1.3
same,"Number of Nocturnal Awakenings due to Hot Flashes, Change from Baseline, 75th Percentile",[1]; Week 4,0.0
same,"Number of Nocturnal Awakenings due to Hot Flashes, Change from Baseline, Maximum",[1]; Week 4,2.1
same,"Number of Nocturnal Awakenings due to Hot Flashes, Change from Baseline, Mean (SD)",[1]; Week 4,−0.8 (1.2)
same,"Number of Nocturnal Awakenings due to Hot Flashes, Change from Baseline, Median",[1]; Week 4,−0.7
same,"Number of Nocturnal Awakenings due to Hot Flashes, Change from Baseline, Minimum",[1]; Week 4,−6.0
same,"Number of Nocturnal Awakenings due to Hot Flashes, Observed Value, 25th Percentile",[1]; Week 4,0.0
same,"Number of Nocturnal Awakenings due to Hot Flashes, Observed Value, 75th Percentile",[1]; Week 4,1.0
same,"Number of Nocturnal Awakenings due to Hot Flashes, Observed Value, Maximum",[1]; Week 4,3.6
same,"Number of Nocturnal Awakenings due to Hot Flashes, Observed Value, Mean (SD)",[1]; Week 4,0.4 (0.7)
same,"Number of Nocturnal Awakenings due to Hot Flashes, Observed Value, Median",[1]; Week 4,0.0
same,"Number of Nocturnal Awakenings due to Hot Flashes, Observed Value, Minimum",[1]; Week 4,0.0
same,"Number of Nocturnal Awakenings due to Hot Flashes, Change from Baseline, Least Squares Means (SE) [3]",[1]; Week 4,−0.7 (0.1)
same,"Number of Nocturnal Awakenings due to Hot Flashes, Observed Value, Least Squares Means (SE) [2]",[1]; Week 4,0.4 (0.1)
same,in vitro affinity for muscarinic receptors,muscarinic receptors,lack of in vitro affinity
same,"Physician Global Assessment, Observed Value, 25th Percentile","[2]; Visit 3 (Baseline), 3 mg group",4.0
same,"Physician Global Assessment, Observed Value, 75th Percentile","[2]; Visit 3 (Baseline), 3 mg group",4.0
same,"Physician Global Assessment, Observed Value, Maximum","[2]; Visit 3 (Baseline), 3 mg group",7.0
same,"Physician Global Assessment, Observed Value, Median","[2]; Visit 3 (Baseline), 3 mg group",4.0
same,"Physician Global Assessment, Observed Value, Minimum","[2]; Visit 3 (Baseline), 3 mg group",0.0
same,"Physician Global Assessment, Observed Value, Mean (SD)","[2]; Visit 3 (Baseline), 3 mg group, 0 = Not assessed",3.7 (1.0)
same,"Physician Global Assessment, Change from Baseline, 25th Percentile","[2]; Visit 5 (Week 4), 3 mg nightly",−2.0
same,"Physician Global Assessment, Change from Baseline, 75th Percentile","[2]; Visit 5 (Week 4), 3 mg nightly",0.0
same,"Physician Global Assessment, Change from Baseline, Maximum","[2]; Visit 5 (Week 4), 3 mg nightly",6.0
same,"Physician Global Assessment, Change from Baseline, Mean (SD)","[2]; Visit 5 (Week 4), 3 mg nightly",−1.0 (1.4)
same,"Physician Global Assessment, Change from Baseline, Median","[2]; Visit 5 (Week 4), 3 mg nightly",−1.0
same,"Physician Global Assessment, Change from Baseline, Minimum","[2]; Visit 5 (Week 4), 3 mg nightly",−4.0
same,"Physician Global Assessment, Observed Value, 25th Percentile","[2]; Visit 5 (Week 4), 3 mg nightly",2.0
same,"Physician Global Assessment, Observed Value, 75th Percentile","[2]; Visit 5 (Week 4), 3 mg nightly",4.0
same,"Physician Global Assessment, Observed Value, Maximum","[2]; Visit 5 (Week 4), 3 mg nightly",6.0
same,"Physician Global Assessment, Observed Value, Median","[2]; Visit 5 (Week 4), 3 mg nightly",2.0
same,"Physician Global Assessment, Observed Value, Minimum","[2]; Visit 5 (Week 4), 3 mg nightly",1.0
same,"Physician Global Assessment, Change from Baseline, Least Squares Means (SE) [2]","[2]; Visit 5 (Week 4), 3 mg nightly, ANCOVA",−0.9 (0.1)
same,"Physician Global Assessment, Observed Value, Least Squares Means (SE) [1]","[2]; Visit 5 (Week 4), 3 mg nightly",2.7 (0.1)
same,"Physician Global Assessment, Observed Value, Least Squares Means (SE) [1]","[2]; Visit 5 (Week 4), 3 mg nightly, listed as ESZ",2.7
same,"Physician Global Assessment, Observed Value, Mean (SD)","[2]; Visit 5 (Week 4), 3 mg nightly",2.6 (1.2)
same,antagonism of oxotremorine induced salivation,mice,"neither (R)-, (S)-, nor racemic zopiclone significantly antagonized oxotremorine induced salivation"
same,"cardiotoxicity, as evidenced by the electrocardiogram (ECG)",conscious dogs,No evidence of cardiotoxicity
same,effect on blood pressure,conscious dogs,"dose dependent, transient decreases in blood pressure"
same,effect on heart rate,conscious dogs,compensatory increase in heart rate
same,"Blood gases and blood chemistries (pH, pCO2, pO2, hematocrit, and lactate)",conscious dogs; all dose groups,remained unaffected
